Columns and labels:
Experiment in all cases: relative viability (nuclei count vs DMSO), 5 days (fraction); higher = more cells survive
Tanzisertib + Trametinib = compound: O[C@H]1CC[C@H](Nc2ncc3nc(Nc4c(F)cc(F)cc4F)n([C@H]4CCOC4)c3n2)CC1 [Tanzisertib] + CC(=O)Nc1cccc(-n2c(=O)n(C3CC3)c(=O)c3c(Nc4ccc(I)cc4F)n(C)c(=O)c(C)c32)c1 [Trametinib] (partner 0.02 µM)
Procedure, shortened: (§1)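 Lung cancer cell lines in 1536-well plates were dosed by pin tool the day after seeding, either with one drug alone or with a fixed anchor-drug dose plus five library-drug doses (not always all listed) in √10 steps. After 5 days, cells were fixed and their nuclei stained in one step (final 0.05% Triton X-100, 1% formaldehyde, 1 ug/ml Hoechst), then counted on 4× images. Relative viability is the nuclei count in treated wells divided by that in vehicle wells. Values are medians of duplicate plates.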

[1] = compound: C1CNCCC1C2=CC(=NN2)C3=CC=NC=C3 + NC(=O)Nc1cc(-c2cccc(F)c2)sc1C(=O)N[C@H]1CCCNC1 [AZD7762] (partner 0.2 µM)
Procedure, shortened: as §1

[2] = compound: C1CNCCC1C2=CC(=NN2)C3=CC=NC=C3 + CS(=O)(=O)CCNCc1ccc(-c2ccc3ncnc(Nc4ccc(OCc5cccc(F)c5)c(Cl)c4)c3c2)o1 [Lapatinib] (partner 2 µM)
Procedure, shortened: as §1

Tanzisertib + Olaparib = compound: O[C@H]1CC[C@H](Nc2ncc3nc(Nc4c(F)cc(F)cc4F)n([C@H]4CCOC4)c3n2)CC1 [Tanzisertib] + O=C(c1cc(Cc2n[nH]c(=O)c3ccccc23)ccc1F)N1CCN(C(=O)C2CC2)CC1 [Olaparib] (partner 8 µM)
Procedure, shortened: as §1

Cell Line	relative viability (Tanzisertib + Trametinib; first compound 0.08 µM)	relative viability (Tanzisertib + Trametinib; first compound 0.253 µM)	relative viability (Tanzisertib + Trametinib; first compound 0.8 µM)	relative viability (Tanzisertib + Trametinib; first compound 2.53 µM)	relative viability (Tanzisertib + Trametinib; first compound 8 µM)	relative viability ([1]; first compound 0.08 µM)	relative viability ([1]; first compound 0.8 µM)	relative viability ([1]; first compound 2.53 µM)	relative viability ([1]; first compound 8 µM)	relative viability ([2]; first compound 0.08 µM)	relative viability ([2]; first compound 0.8 µM)	relative viability ([2]; first compound 2.53 µM)	relative viability ([2]; first compound 8 µM)	relative viability (Tanzisertib + Olaparib; first compound 0.08 µM)	relative viability (Tanzisertib + Olaparib; first compound 0.253 µM)	relative viability (Tanzisertib + Olaparib; first compound 0.8 µM)	relative viability (Tanzisertib + Olaparib; first compound 2.53 µM)	relative viability (Tanzisertib + Olaparib; first compound 8 µM)
201T	0.731	0.756	0.701	0.806	0.764	0.645	0.65	0.654	0.562	0.975	0.978	0.994	0.986	0.854	0.902	0.855	0.848	0.864
A549										0.863	1.02	1.14	0.952	0.297	0.397	0.344	0.35	0.0802
A-427	0.813	0.745	0.742	0.736	0.751	0.752	0.802	0.92	0.774	1.12	1.15	0.971	0.978	0.783	0.66	0.811	0.877	0.782
ABC-1						0.851	0.519	0.915	1.02	1.14	1.25	1.09	1.38	0.838	0.757	0.634	0.701	0.792
BEN	1.06	1.09	1.04	1.08	1.09	0.546	0.634	0.675	0.772	0.594	0.571	0.939	0.761	1.05	0.968	1.05	1.12	0.997
CAL-12T	0.317	0.336	0.396	0.387	0.432	0.701	0.669	0.601	0.66	0.714	0.613	0.811	0.666	0.731	0.767	0.567	0.641	0.844
COR-L23	0.717	0.627	0.7	0.616	0.547					0.989	1.3	0.98	1.01	0.339	0.353	0.347	0.417	0.353
COR-L 105	0.43	0.493	0.485	0.448	0.37					0.32	0.34	0.389	0.363	0.729	0.631	0.792	0.726	0.816
Calu-6										0.987	1.17	1.12	1.05	0.583	0.566	0.563	0.597	0.509
ChaGo-K-1	0.902	0.896	0.821	0.91	0.832	0.886	0.876	0.926	0.753					0.511	0.422	0.453	0.45	0.438
EBC-1										0.202	0.219	0.209	0.239	0.747	0.675	0.675	0.603	0.536
EKVX	0.487	0.301	0.368	0.347	0.295	0.754		0.704	0.701	0.211	0.184	0.208	0.208	0.888	0.876	0.862	0.872	0.792
EMC-BAC-2	0.904	0.84	0.864	0.955	0.962	0.892	1.14	1.16	1.12	0.682	0.927	0.897	0.87	0.484	0.477	0.455	0.488	0.533
EPLC-272H	0.318	0.279	0.322	0.317	0.297	0.18	0.261	0.26	0.212	0.92	1	1.14	1.03	0.991	0.767	0.758	1.51	0.572
H3255	0.696	0.646	0.766	0.726	0.523	0.954	0.835	1.12	0.967	0.265	0.255	0.262	0.261	0.611	0.521	0.661	0.62	0.481
HARA	0.801	0.692	0.689	0.711	0.687	0.328	0.306	0.295	0.258	0.755	0.874	0.736	0.701	0.876	0.844	0.715	1.28	0.849
HCC-15	0.406	0.364	0.414	0.36	0.342	1.17	1.3	1.21	0.987	0.849	0.953	0.871	0.823	0.779	0.742	0.791	0.713	0.727
HCC-44	1.17	1.08	1.09	0.979	1.06	0.976	1.04	1.04	1.04	1.04	1.14	1.04	0.966	0.99	1.08	0.965	1.03	1.11
HCC-78	0.847	0.737	0.889	0.787	0.842	0.644		0.888	0.723	0.723		0.871	0.86	0.922	0.73	0.854	0.852	0.622
HCC-366		0.39	0.376	0.292	0.258	0.271	0.361	0.287	0.345	0.864	1.13	1.04	1.04		0.319	0.36	0.353	0.308
HCC-827	0.556	0.552	0.481	0.411	0.265	0.248	0.155	0.271	0.223	0.207	0.174	0.22	0.166	0.616	0.716	0.711	0.54	0.355
HOP-62	0.389	0.341	0.435	0.412	0.346	0.67	1	0.751	0.462	1.09	1.17	1.1	1.12	0.268	0.426	0.587	0.643	0.556

Cell Line	relative viability (Tanzisertib + Trametinib; first compound 0.08 µM)	relative viability (Tanzisertib + Trametinib; first compound 0.253 µM)	relative viability (Tanzisertib + Trametinib; first compound 0.8 µM)	relative viability (Tanzisertib + Trametinib; first compound 2.53 µM)	relative viability (Tanzisertib + Trametinib; first compound 8 µM)	relative viability ([1]; first compound 0.08 µM)	relative viability ([1]; first compound 0.8 µM)	relative viability ([1]; first compound 2.53 µM)	relative viability ([1]; first compound 8 µM)	relative viability ([2]; first compound 0.08 µM)	relative viability ([2]; first compound 0.8 µM)	relative viability ([2]; first compound 2.53 µM)	relative viability ([2]; first compound 8 µM)	relative viability (Tanzisertib + Olaparib; first compound 0.08 µM)	relative viability (Tanzisertib + Olaparib; first compound 0.253 µM)	relative viability (Tanzisertib + Olaparib; first compound 0.8 µM)	relative viability (Tanzisertib + Olaparib; first compound 2.53 µM)	relative viability (Tanzisertib + Olaparib; first compound 8 µM)
IA-LM										0.809	1.13	0.926	0.898	0.738	0.765	0.754	0.859	0.789
LC-2-ad	1	0.915	0.973	0.932	0.877	0.84	0.859	0.872	0.87	1.04	1.05	1	0.914	0.68	0.743	0.706	0.714	0.794
LCLC-97TM1	0.236	0.227	0.234	0.172	0.172	0.27	0.239	0.248	0.332	1.05	1.39	1.59	1.04	0.487	0.51	0.416	0.301	0.47
LCLC-103H	0.661	0.744	0.703	0.691	0.71	0.724	0.738	0.904	0.837					0.76	0.813	0.816	0.8	0.81
LK-2	0.916	0.76	0.816	0.694	0.866		0.29	0.532	0.522	0.768	0.791	1.06	0.83	0.772	0.835	0.712	0.669	0.769
NCI-H441	0.567	0.452	0.456	0.429	0.388	0.967	1.18	0.948	1.19					0.642	0.611	0.545	0.496	0.535
NCI-H520	0.734	0.724	0.814	0.776	0.646					0.763	0.897	0.92	0.835	0.395	0.331	0.39	0.328	0.433
NCI-H522	0.766	0.535	0.688	0.826	0.69	0.764	0.915	0.832	0.879					0.629	0.809	0.726	0.647	0.634
NCI-H661	0.684	0.574	0.55	0.647	0.54					0.466	0.475	0.479	0.55	0.807	0.756	0.74	0.786	0.724
NCI-H1299										0.96	0.948	1	0.891	0.997	0.972	0.96	1.1	1.03
NCI-H1563										0.747	0.885	0.896	1.03					
NCI-H1648	0.492	0.459	0.51	0.5	0.482	0.632	0.716		0.78					0.662	1.22	0.797	0.817	0.765
NCI-H1650	0.458	0.689	0.609	0.532	0.415					0.561	0.751	0.821	0.736	0.807	0.778	0.882	0.671	0.662
NCI-H1703							0.104		0.133	1.03	1.51	1.12	1.03	0.457	0.453	0.388	0.35	0.392
NCI-H2009	0.316	0.274	0.274	0.247	0.21					0.998	1.01	1.07	0.888	0.634	0.734	0.743	0.73	0.752
NCI-H2023	0.571	0.538	0.517	0.439	0.499					0.615	0.909	1.03	0.974	0.523	0.47	0.497	0.44	0.452
NCI-H2228	0.581	0.34	0.806	0.362	0.259					0.926	1.06	1.62	1.19	0.579	0.506	0.556	0.788	0.496
NCI-H2342	0.791	0.733	0.804	0.863	0.938	0.572	0.351	0.57	0.591					0.572	0.423	0.483	0.485	0.439
SK-LU-1	0.576	0.507	0.528	0.54	0.471					0.944	0.799	0.849	0.814	0.502	0.538	0.453	0.491	0.373
SK-MES-1	0.618	0.549	0.54	0.493	0.385					0.423	0.381	0.439	0.421	0.699	0.709	0.742	0.653	0.624
SW 900		0.868	0.857	0.552	0.737	0.687		0.718	0.738						0.82	0.963	0.782	0.722
SW 1573	0.555	0.514	0.547	0.521	0.456					1.03	1.21	1.17	1.25	0.453	0.406	0.475	0.455	0.443

— the supplement of paper PMC10307832
